# Biological target: M. tb PII (GlnB) (Mycobacterium tuberculosis, UniProt P9WN31)
# Sequence (P9WQ65 417-477): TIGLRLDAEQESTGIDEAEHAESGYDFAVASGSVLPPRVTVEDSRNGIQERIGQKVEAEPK
# Sequence (P9WN31 whole entry): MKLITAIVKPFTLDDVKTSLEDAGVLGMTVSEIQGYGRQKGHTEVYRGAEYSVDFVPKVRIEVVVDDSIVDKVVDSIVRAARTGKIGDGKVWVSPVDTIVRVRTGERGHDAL
smiles,measurement,value
O=C(O)CCC(=O)C(=O)O [2-oxoglutarate],"Ni-NTA pull-down of AmtCTR by His-PII, SDS-PAGE",PII is able to interact with AmtCTR being negatively modulated by 2-OG

# — paper PMC11001197, “The PII protein interacts with the Amt ammonium transport and modulates nitrate/nitrite assimilation in mycobacteria” (Frontiers in Microbiology, 2024)
